Where two headings read alike, the source gives them in different places.
How the values were obtained:
[1] = system: CRC SW620 Tumor Cell Line; experiment: 72-hour cell proliferation assay (Cell Titer Glo), combination index; assay type: cell-based; conditions: Homo sapiens, SW-620; SW620, single agent, 90% inhibition not reached
Protocol: The effects of combinations of the present invention were evaluated using combination index isobologram analysis for in vitro assessment. The efficacy parameters were the effects in a 72-hour cell proliferation assay or in a 48-hour caspase 3/7 activation assay. Briefly, cells were plated in 384-well plate with 25 μL medium. […] Experiments were conducted in triplicates. The mapping EC50/IC50 and EC90/IC90 values were calculated using Analyze5 computer program. The corresponding component concentrations of cA and BB (either cB, or Lapatinib, or paclitaxel (as component B)) at the […] were calculated and used for plotting isobolograms. […] IC50 and IC90 refers to the IC50 and IC90 obtained from the dose-response curve of either cA* or cB alone, or cA* plus cB with the ratio indicated in the table, where the top relative concentration is defined as 1.

[2] = system: NCI-H1975, NCI-H1650, HCT116, Colo205, MDA-MB-468 cell lines; experiment: caspase 3/7 activation assay, example (cell line not named); assay type: cell-based
Protocol: The effects of combinations of the present invention were evaluated using combination index isobologram analysis for in vitro assessment. The efficacy parameters were the effects in a 72-hour cell proliferation assay or in a 48-hour caspase 3/7 activation assay. Briefly, cells were plated in 384-well plate with 25 μL medium. […] Experiments were conducted in triplicates. The mapping EC50/IC50 and EC90/IC90 values were calculated using Analyze5 computer program. The corresponding component concentrations of cA and BB (either cB, or Lapatinib, or paclitaxel (as component B)) at the […] were calculated and used for plotting isobolograms. […] The dose-response curve of either cA* or cB alone, or cA* (as component A) plus cB (as component B) with the ratio indicated in the figure, where the top relative concentrations are defined as 1.

[3] = system: Co5841 primary human tumor (CRC); experiment: Co5841 primary human xenograft CRC model; assay type: in vivo, nude mice
Protocol: (§1) The in vivo combination effects were evaluated in tumor xenograft models in nude mice with either established human tumor cell lines or patient-derived primary tumor models at the MTD and sub-MTD dosages.
FIG. 3: Dose-dependent tumor growth inhibition in Co5841 primary human xenograft CRC model. Co5841 primary human tumor was derived from a patient with CRC and was xenografted in nude mice. The tumor was propagated in vivo and tumor tissue from one in vivo passage was used for s.c. implantation in the inguinal region of male nude mice. Treatment was started when the tumors were approximately 0.1 cm^3 in size. Treatment was continued until progression of the tumors. Tumor diameters and body weight were monitored weekly. cA* was dosed at 14 mg/kg, Q2D×7 from day 6 to day 22 (group C, H and I), or 10 mg/kg, BID×1 weekly on day 6, 13, and 20. cB was dosed at either 12.5 mg/kg (group D, F and H), QD, […]

[4] = system: Lu7187 primary human tumor (NSCLC); conditions: for T/C / animals with disease progression / sensitivity of the model: Lu7187; for animals with disease progression: respective monotherapy groups
Protocol: as §1
Lu7187 primary human tumor was derived from a patient with NSCLC and was xenografted in nude mice. The tumor was propagated in vivo and tumor tissue from one in vivo passage was used for s.c. implantation in the inguinal region of male nude mice. Treatment was started when the tumors were approximately 0.1 cm^3 in size. Treatment was continued until progression of the tumors. Tumor diameters and body weight were monitored t weekly. cA* was dosed at 14 mg/kg, Q2D×10 from day 7 to day 25 (group C, H and I), or 10 mg/kg, BID×1 weekly on day 7, 14, 21 and 28. cB was dosed at either 12.5 mg/kg (group D, F and H), QD, or 25 mg/kg (group E, G and I), QD from day 7 to day 35.

[5] = system: Lu7343 primary human tumor (NSCLC); experiment: patient-derived NSCLC xenograft model, cA plus paclitaxel (text: Lu7187; FIG. 5: Lu7343); assay type: in vivo, nude mice
Protocol: as §1
The synergistic combination of cA* and palitaxel was also confirmed in a patient-derived NSCLC xenograft model—Lu7187.
FIG. 5: Dose-dependent tumor growth inhibition in Lu7343 primary human xenograft NSCLC model. Lu7343 primary human tumor was derived from a patient with NSCLC and was xenografted in nude mice. The tumor was propagated in vivo and tumor tissue from one in vivo passage was used for s.c. implantation in the inguinal region of male nude mice. Treatment was started when the tumors were approximately 0.1 cm^3 in size. Treatment was continued until progression of the tumors. Tumor diameters and body weight were monitored t weekly. cA* was dosed at 10 mg/kg, BIDx1 weekly on day 15, 22, and 29. paclitaxel was dosed at either 15 mg/kg, or 25 mg/kg, once a week on day 14, 21 and day 28.

With `COc1cc(F)c(F)c(Nc2ccc(I)cc2F)c1NS(=O)(=O)C1(C[C@H](O)CO)CC1` [cB, (S)—N-(3,4-difluoro-2-(2-fluoro-4-iodophenylamino)-6-methoxyphenyl)-1-(2,3-dihydroxypropyl)cyclopropane-1-sulfonamide] the IC90 [1] was greater than 5 µM, the “induction of apoptosis (caspase 3/7), single agent” value ([2]; 10 μM) was “Neither 10 μM of cB nor 5 μM of cA as single agents could induce apoptosis” and the T/C ([3]; cB 12.5 mg/kg daily, day 6 to 23) was 0.35. For the same compound, the “animals with disease progression (DP)” value ([3]; cB 25 mg/kg monotherapy) was 70%, the T/C ([4]; cB 12.5 mg/kg daily, day 7 to 35) was 0.46 and the T/C ([4]; cB 25 mg/kg daily, day 7 to 35) was 0.31. For the same compound, the “animals with disease progression” value [4] was 100%.
`COc1c(OCCCN2CCOCC2)ccc2c1N=C(NC(=O)c1cnc(N)nc1)N1CCN=C21` [cA, 2-amino-N-[7-methoxy-8-(3-morpholin-4-ylpropoxy)-2,3-dihydroimidazo[1,2-c]quinazolin-5-yl]pyrimidine-5-carboxamide] was tested, and the IC90 [1] was greater than 5 µM, the “induction of apoptosis (caspase 3/7), single agent” value ([2]; 5 μM) was “Neither 10 μM of cB nor 5 μM of cA as single agents could induce apoptosis” and the T/C ([3]; cA 10 mg/kg BID weekly (day 6, 13, 20)) was 0.49. The “animals with disease progression (DP)” value ([3]; cA 10 mg/kg BID weekly monotherapy) was 90%, the “animals with disease progression (DP)” value ([3]; cA 14 mg/kg Q2D monotherapy) was 100% and the T/C ([3]; cA 14 mg/kg Q2D, day 6 to 22) was 0.39. For the same compound, the T/C ([4]; cA 10 mg/kg BID weekly (day 7, 14, 21, 28)) was 0.88, the “animals with disease progression” value [4] was 100% and the “body weight loss of weekly dosing compared with Q2D dosing” value ([4]; mouse, in vivo) was “less body weight loss”.
For `C#Cc1cccc(Nc2ncnc3cc(OCCOC)c(OCCOC)cc23)c1` [erlotinib, reference compound], the “sensitivity of the model” value [4] was “resistant”.
`COc1cc([C@@H]2c3cc4c(cc3[C@@H](O[C@@H]3O[C@@H]5CO[C@@H](C)O[C@H]5[C@H](O)[C@H]3O)[C@H]3COC(=O)[C@H]23)OCO4)cc(OC)c1O` [etoposid, reference compound] was tested, and the “sensitivity of the model” value [4] was “resistant”.
For `CC(=O)O[C@H]1C(=O)[C@@]2(C)[C@H]([C@H](OC(=O)c3ccccc3)[C@]3(O)C[C@H](OC(=O)[C@H](O)[C@@H](NC(=O)c4ccccc4)c4ccccc4)C(C)=C1C3(C)C)[C@]1(OC(C)=O)CO[C@@H]1C[C@@H]2O` [Paclitaxel], the “sensitivity of the model” value [4] was “resistant”, the single agent efficacy ([5]; paclitaxel 25 mg/kg (MTD)) was “very efficacious” and the “mice with disease progression after stopping the treatment” value ([5]; paclitaxel 25 mg/kg single agent) was 60%.
